The results in this text go back to US20100099676A1 (SHIONOGI & CO., LTD., priority 2006, published 2010).

Usually IC50 stands for the point on the concentration scale where inhibition reaches its midpoint.

Assay in all cases: Enzyme inhibiting activity of MMPs, fluorogenic peptide substrate
Common to all, as to format: biochemical

One assay concerns the target T1, MMP-2 (Homo sapiens, UniProt P08253).
T1 construct: purchased Calbiochem (EMD/MERCK Biosciences)
T1 sequence (P08253 110-660): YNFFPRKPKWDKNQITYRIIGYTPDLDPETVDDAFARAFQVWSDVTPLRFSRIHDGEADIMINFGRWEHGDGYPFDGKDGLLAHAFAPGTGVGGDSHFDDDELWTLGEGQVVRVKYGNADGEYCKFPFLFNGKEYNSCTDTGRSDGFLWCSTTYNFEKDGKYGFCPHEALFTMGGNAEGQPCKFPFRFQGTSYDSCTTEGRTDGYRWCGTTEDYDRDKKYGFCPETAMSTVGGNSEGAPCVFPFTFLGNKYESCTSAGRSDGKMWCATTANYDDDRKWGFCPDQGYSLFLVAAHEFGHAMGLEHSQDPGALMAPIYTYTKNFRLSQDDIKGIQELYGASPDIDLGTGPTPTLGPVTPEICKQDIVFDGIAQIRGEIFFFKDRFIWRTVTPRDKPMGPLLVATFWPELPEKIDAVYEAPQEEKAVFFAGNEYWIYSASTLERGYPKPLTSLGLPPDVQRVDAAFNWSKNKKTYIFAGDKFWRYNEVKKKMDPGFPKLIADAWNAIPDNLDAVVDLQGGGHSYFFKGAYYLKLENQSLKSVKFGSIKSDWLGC
The settings on record: substrate MOCAc-Pro-Leu-Gly-Leu-A2Pr(DNP)-Ala-Arg-NH2, fluorescent intensity. The protocol:
(§1) Various human MMPs (MMP-2, MMP-9 and MMP-13) were purchased from Calbiochem (EMD/MERCK Biosciences).
(§2) The enzyme activity of MMPs was measured according to the method described in C. Graham Knight, Frances Willenbrock and Gillian Murphy: A novel coumarin-labelled peptide for sensitive continuous assays of the matrix metalloproteinases: FEBS LETT., 296, (1992), 263-266. As a substrate, MOCAc-Pro-Leu-Gly-Leu-A2Pr(DNP)- Ala-Arg-NH2 (Peptide Institute, Inc. Osaka, Japan) was used, and the following four assays are performed per compound (inhibitor) for measuring the inhibiting activity.
(§3) (A) Substrate (synthetic substrate), enzyme (MMPs), inhibitor
(§4) (B) Substrate (synthetic substrate), inhibitor
(§5) (C) Substrate (synthetic substrate), enzyme (MMPs)
(§6) (D) Substrate (synthetic substrate)
(§7) In each assay, the fluorescent intensity was measured, and inhibition (%) was calculated by the following equation.
(§8) Inhibition (%)=[I−(A−B)/(C−D)]×100
(§9) IC50 indicates a concentration at which inhibition (%) is 50%.

The next assay deals with T2, MMP-9 (Homo sapiens, UniProt P14780).
T2 construct: purchased Calbiochem (EMD/MERCK Biosciences)
T2 sequence (P14780 94-707): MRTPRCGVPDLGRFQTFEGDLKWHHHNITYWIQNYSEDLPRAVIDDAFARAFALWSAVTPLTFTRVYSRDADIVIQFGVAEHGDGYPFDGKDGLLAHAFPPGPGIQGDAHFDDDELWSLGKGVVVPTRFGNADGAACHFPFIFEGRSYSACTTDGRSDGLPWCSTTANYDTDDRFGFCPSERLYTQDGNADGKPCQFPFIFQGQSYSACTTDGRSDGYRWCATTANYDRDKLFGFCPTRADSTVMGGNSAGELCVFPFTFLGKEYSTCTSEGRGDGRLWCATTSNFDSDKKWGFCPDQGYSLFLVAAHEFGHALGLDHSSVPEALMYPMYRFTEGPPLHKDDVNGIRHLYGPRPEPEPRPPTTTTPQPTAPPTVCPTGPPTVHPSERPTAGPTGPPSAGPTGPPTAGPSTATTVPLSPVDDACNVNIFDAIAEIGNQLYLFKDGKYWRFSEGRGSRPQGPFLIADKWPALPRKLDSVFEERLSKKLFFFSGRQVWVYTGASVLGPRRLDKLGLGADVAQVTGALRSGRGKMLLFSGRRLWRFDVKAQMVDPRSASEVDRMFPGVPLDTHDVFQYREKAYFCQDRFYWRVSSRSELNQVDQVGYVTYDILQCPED
The settings on record: substrate MOCAc-Pro-Leu-Gly-Leu-A2Pr(DNP)-Ala-Arg-NH2, fluorescent intensity. The protocol:
as §1, §2, §3, §4, §5, §6, §7, §8, §9

A further assay concerns the target T3, MMP-13 (Homo sapiens, UniProt P45452).
T3 construct: purchased Calbiochem (EMD/MERCK Biosciences)
The settings on record: APMA-activated proenzyme; substrate MOCAc-Pro-Leu-Gly-Leu-A2Pr(DNP)-Ala-Arg-NH2, fluorescent intensity; read-out: IC50 MMP-13. The protocol: as §1
Since the purchased MMP-13 was Proenzyme, the activated one was used, which was incubated at 37° C. for 2 hours after the successive addition of an assay buffer (containing 50 mM Tris-HCl (pH7.6), 0.3 M NaCl, 10 mM CaCl2, 0.005% Brij35) and APMA (final concentration 1 mM) to the enzyme solution.
as §2, §3, §4, §5, §6, §7, §8, §9

`COc1ccc(CNC(=O)c2cc(C#Cc3ccc(N4CCN(S(=O)(=O)N[C@@H](C(=O)O)C(C)C)CC4)cc3)cn(C)c2=O)cc1` [III-172, (R)-2-(4-{4-[5-(4-methoxybenzylcarbamoyl)-1-methyl-6-oxo-1,6-dihydropyridin-3-yllethynyl]-phenyl}-piperazine-1-sulfonylamino)-3-methylbutanoic acid]: the IC50 against MMP-2 is > 10 µM; on MMP-9, > 10 µM; at MMP-13 it was 0.01 µM.
On to `C[C@@H](NS(=O)(=O)N1CCN(c2ccc(C#Cc3nc(-c4cccc(C(=O)NCc5ccccc5)c4)cs3)cc2)CC1)C(=O)O` [Compound V-14, (R)-2-(4-{4-[4-(3-benzylcarbamoylphenyl)-thiazol-2-ylethynyl]-phenyl}-piperazine-1-sulfonylamino)-proponic acid], for which the values for the IC50 on MMP-2, against MMP-9 and on MMP-13 were 1 to 10 µM, > 10 µM and 0.006 µM, respectively.
`CCc1cnc(-c2cc(C#Cc3ccc(N4CCN(S(=O)(=O)N[C@@H](C(=O)O)C(C)C)CC4)cc3)ccc2OCCOC)o1` [Compound V-57, (R)-2-(4-{4-[3-(5-ethyloxazol-2-yl)-4-(2-methoxyethoxy)-phenylethynyl]-phenyl}-piperazine-1-sulfonylamino)-3-methylbutanoic acid]: the IC50 on MMP-2 was 1 to 10 µM; against MMP-9, > 10 µM; on MMP-13, 0.013 µM.
Take `C[C@@H](NS(=O)(=O)N1CCN(c2ccc(/C=C/c3cccc(C(=O)NCc4ccccc4)c3)cc2)CC1)C(=O)O` [Compound I-2, (R)-2-(4-{4-[(E)-2-(3-benzylcarbamoylphenyl)-vinyl]-phenyl}-piperazine-1-sulfonylamino)-proponic acid]: the IC50 against MMP-2 is 0.1 to 1 µM; at MMP-9, > 10 µM; at MMP-13 it was 0.0038 µM.
On to `CC[C@H](NS(=O)(=O)N1CCN(c2ccc(C#Cc3ccnc(C(=O)NCc4ccc(Cl)cc4)c3)cc2)CC1)C(=O)O` [III-68, (S)-2-(4-{4-[2-(4-chrolobenzylcarbamoyl)-pyridin-4-ylethynyl]-phenyl}-piperazine-1-sulfonylamino)-butanoic acid], for which the IC50 was > 10 µM at MMP-2, > 10 µM against MMP-9 and 0.005 µM at MMP-13.
Take `CC(C)[C@@H](NS(=O)(=O)N1CCN(c2ccc(C#Cc3ccnc(C(=O)NCc4ccc(Br)cc4)c3)cc2)CC1)C(=O)O` [III-216, (R)-2-(4-{4-[2-(4-bromobenzylcarbamoyl)-pyridin-4-ylethynyl]-phenyl}-piperazine-1-sulfonylamino)-3-methylbutanoic acid]: the IC50 is > 10 µM on MMP-2, > 10 µM against MMP-9 and 0.017 µM at MMP-13.
For `Cc1ccc(CNC(=O)c2cc(C#Cc3ccc(N4CCN(S(=O)(=O)N[C@@H](C(=O)O)C(C)C)CC4)cc3)ccn2)cc1` [III-193, (R)-3-methyl-2-(4-{4-[2-(4-methylbenzylcarbamoyl)-pyridin-4-ylethynyl]-phenyl}-piperazine-1-sulfonylamino)-butanoic acid], the results for the IC50 against MMP-2, against MMP-9 and on MMP-13 were 1 to 10 µM, > 10 µM and 0.005 µM, respectively.
Take `CC(C)[C@@H](NS(=O)(=O)N1CCN(c2ccc(C#Cc3ccc4[nH]c(=O)n(Cc5ccc(Cl)cc5)c(=O)c4c3)cc2)CC1)C(=O)O` [III-6, (R)-2-(4-{4-[3-(4-chrolobenzyl)-2,4-dioxo-1,2,3,4-tetrahydroquinazolin-6-ylethynyl]-phenyl}-piperazine-1-sulfonylamino)-3-methylbutanoic acid]: the IC50 is > 10 µM against MMP-2, > 10 µM against MMP-9 and 0.028 µM on MMP-13.
Take `CC(C)[C@@H](NS(=O)(=O)N1CCN(c2ccc(C#Cc3ccnc(C(=O)NCc4ccc5c(c4)CCO5)c3)cc2)CC1)C(=O)O` [III-200, (R)-2-[4-(4-{2-[(2,3-dihydrobenzofuran-5-ylmethyl)-carbamoyl]-pyridin-4-ylethynyl}-phenyl)-piperazine-1-sulfonylamino]-3-methylbutanoic acid]: the values for the IC50 at MMP-2, against MMP-9 and at MMP-13 were 1 to 10 µM, > 10 µM and 0.005 µM, respectively.
